Laboratory results from US8637038B2, “Methods for inhibiting allograft rejection” (Rigel Pharmaceuticals, Inc., priority 2011, dated 2014).

Assay: Five-day heart allograft study: side effects (clinical chemistry)
Type: in vivo, rat
Settings: five days
Procedure: Compound I and Compound III were provided by Rigel (South San Francisco, Calif.) and Tacrolimus was provided by Astellas (Munich, Germany). All drugs were administrated orally each in two different concentrations: Compound I LD (15 mg/kg BID; n=6) and HD (60 mg/kg BID; n=6); Compound III LD (5 mg/kg BID; n=6) and HD (20 mg/kg BID; n=6); Tac LD (1 mg/kg QD; n=6) and HD (4 mg/kg QD; n=6). Administration of all drugs was performed every day at the same time points. Tacrolimus was applied only once a day (QD) every 24 hours. During administration of Compound I (BID) and Compound III (BID) a 12 hour pause was kept in between each drug application.
Lew recipients of heterotopic BN heart transplants were randomly assigned to their group. Animals were either left untreated (groups 1 and 2; see Table 1,5-day study) or received their group specific medication (groups 3-8; see Table 1,5-day study) by oral application. An untreated syngeneic transplant group Lew-Lew was generated as control.
EDTA samples and sera were taken five days after transplantation for differential blood count, BUN, Creatinine, Cholesterol, HDL, LDL, Triglycerides, AST, and ALT, respectively. Analyses were performed by standard clinical chemistry procedures.

In the case of `COc1cc(Nc2ncc(C)c(Nc3ccc4oc(=O)[nH]c4c3)n2)cc(C)c1C` [Compound III, 5-(2-(3-methoxy-4,5-dimethylphenylamino)-5-methylpyrimidin-4-ylamino)benzol[d]oxazol-2-(3H)-one], the “serum HDL, mean” value (HD (Compound I 60 mg/kg BID, Compound III 20 mg/kg BID, Tac 4 mg/kg QD), no medication mean 26.0) is reported as 46.3 mg/dL and the “serum LDL, mean” value (LD (Compound III 5 mg/kg BID, Tac 1 mg/kg QD)) is reported as 19.6 mg/dL.
